Assay results taken from ChEMBL document CHEMBL3124919, “Design, synthesis and biological evaluation of 3-[4-(7-chloro-quinolin-4-yl)-piperazin-1-yl]-propionic acid hydrazones as antiprotozoal agents” (Eur J Med Chem, 2014).
Active and inactive are the calls of the source. The rule behind the calls is not given here.

Assays:
Entamoeba histolytica [1] = experiment: Antiprotozoal activity against Entamoeba histolytica HM-1:IMSS trophozoites after 72 hrs by microdilution method; assay type: functional, organism-based
[2] = Inhibition of beta-hematin formation at 2.5 mM after 24 hrs by spectrophotometry; assay type: physicochemical; conditions: 2500 µM
[3] = Cytotoxicity against human erythrocytes assessed as hemolysis at 25 uM after 1 hr by spectrophotometry; assay type: cell-based; conditions: erythrocyte
[4] = Cytotoxicity against BALB/c mouse splenocytes assessed as [3H]-thymidine incorporation after 24 hrs by beta-radiation counting analysis relative to control; assay type: cell-based; conditions: Splenocyte
Plasmodium falciparum [5] = experiment: Antimicrobial activity against erythrocytic stage of chloroquine-resistant Plasmodium falciparum W2 infected in human erythrocytes assessed as [3H]hypoxanthine incorporation at 1 ug/ml after 24 hrs by beta-radiation counting analysis; assay type: functional
Plasmodium falciparum [6] = experiment: Antimicrobial activity against erythrocytic stage of chloroquine-resistant Plasmodium falciparum W2 infected in human erythrocytes assessed as [3H]hypoxanthine incorporation after 24 hrs by beta-radiation counting analysis; assay type: functional, organism-based
Plasmodium falciparum [7] = experiment: Antimicrobial activity against ring stage chloroquine-resistant Plasmodium falciparum W2 infected in human erythrocytes assessed as inhibition of schizont stage parasite growth at 0.5 to 1 uM after 48 hrs by light microscopy; assay type: functional, organism-based
Entamoeba histolytica [8] = experiment: Ratio of metronidazole IC50 to compound IC50 for Entamoeba histolytica HM-1:IMSS trophozoites; assay type: functional
[9] = Selectivity index, ratio of IC50 for BALB/c mouse splenocytes to IC50 for Entamoeba histolytica HM-1:IMSS trophozoites
[10] = Plasmodium falciparum, W2, read-out: IC50

Compound | IC50 (Entamoeba histolytica [1]) | IC50 [4] | inhibition at 1 µg/mL (Plasmodium falciparum [5]) | IC50 (Plasmodium falciparum [6]; [10]) | other results
COc1cc(/C=N/NC(=O)CCN2CCN(c3ccnc4cc(Cl)ccc34)CC2)ccc1O | 21.3 µM | 9.4 µM | 99.1% | 2.1 µM | inhibition (INH) [2]: 50.7%; Activity [3]: Non-toxic
O=C(CCN1CCN(c2ccnc3cc(Cl)ccc23)CC1)N/N=C/c1cccc([N+](=O)[O-])c1 | 12.6 µM | – | 19.9% | – | –
O=C(CCN1CCN(c2ccnc3cc(Cl)ccc23)CC1)N/N=C/c1cccc(Cl)c1 | 7.7 µM | > 100 µM | 97.3% | – | –
COc1cc(/C=N/NC(=O)CCN2CCN(c3ccnc4cc(Cl)ccc34)CC2)c(Br)c(OC)c1OC | 3.7 µM | 9.6 µM | 42.9% | – | IC50 (Plasmodium falciparum [6]): Not Active
CCOC(OCC)c1ccc(/C=N/NC(=O)CCN2CCN(c3ccnc4cc(Cl)ccc34)CC2)cc1 | > 100 µM | – | 71.7% | – | –
CCOC(=O)COc1ccc(/C=N/NC(=O)CCN2CCN(c3ccnc4cc(Cl)ccc34)CC2)cc1OC | > 100 µM | – | 71.7% | – | –
Cc1ccc(/C=N/NC(=O)CCN2CCN(c3ccnc4cc(Cl)ccc34)CC2)cc1 | 8.1 µM | – | 81.4% | – | –
Cc1ncc([N+](=O)[O-])n1CCO [METRONIDAZOLE] | 1.5 µM | 5.4 µM | – | – | –
O=C(CCN1CCN(c2ccnc3cc(Cl)ccc23)CC1)N/N=C/c1ccccc1O | 25.6 µM | 11.5 µM | 98.9% | 0.33 µM | Activity (Plasmodium falciparum [7]): Active; inhibition (INH) [2]: 83.2%; Activity [3]: Non-toxic
O=C(CCN1CCN(c2ccnc3cc(Cl)ccc23)CC1)N/N=C/c1ccc2c(c1)OCO2 | > 100 µM | – | 27.8% | – | –
O=C(CCN1CCN(c2ccnc3cc(Cl)ccc23)CC1)N/N=C/c1ccc(Cl)cc1 | 87.2 µM | 0.2 µM | 98.4% | 1.4 µM | –
COc1cc(/C=N/NC(=O)CCN2CCN(c3ccnc4cc(Cl)ccc34)CC2)ccc1OC(C)=O | 0.13 µM | 15.8 µM | 0% | – | Ratio IC50 (Entamoeba histolytica [8]): 10; Ratio IC50 [9]: 121
COc1cc(/C=N/NC(=O)CCN2CCN(c3ccnc4cc(Cl)ccc34)CC2)ccc1OC(C)C | 15.5 µM | 8.8 µM | 98.6% | 4.5 µM | inhibition (INH) [2]: 15.7%; Activity [3]: Non-toxic
CC(C)c1ccc(/C=N/NC(=O)CCN2CCN(c3ccnc4cc(Cl)ccc34)CC2)cc1 | 17.1 µM | 7.9 µM | 97.5% | 1.7 µM | inhibition (INH) [2]: 94%; Activity [3]: Non-toxic
COc1ccc(/C=N/NC(=O)CCN2CCN(c3ccnc4cc(Cl)ccc34)CC2)cc1OC | 11.6 µM | – | 98.4% | – | –
O=C(CCN1CCN(c2ccnc3cc(Cl)ccc23)CC1)N/N=C/c1ccccc1[N+](=O)[O-] | 11.3 µM | – | 73.1% | – | –
CC(C)Oc1ccc(/C=N/NC(=O)CCN2CCN(c3ccnc4cc(Cl)ccc34)CC2)cc1 | 5.3 µM | 3.6 µM | 98% | 0.8 µM | –
O=C(CCN1CCN(c2ccnc3cc(Cl)ccc23)CC1)N/N=C/c1c[nH]c2ccccc12 | 9.6 µM | 5.7 µM | 81.5% | 3.3 µM | inhibition (INH) [2]: 43.3%; Activity [3]: Non-toxic

Compound | IC50 (Entamoeba histolytica [1]) | IC50 [4] | inhibition at 1 µg/mL (Plasmodium falciparum [5]) | IC50 (Plasmodium falciparum [6]; [10]) | other results
O=C(CCN1CCN(c2ccnc3cc(Cl)ccc23)CC1)N/N=C/c1cc(Br)c(O)c(Br)c1 | 6.6 µM | – | 28% | – | IC50 (Plasmodium falciparum [6]): Not Active
O=C(CCN1CCN(c2ccnc3cc(Cl)ccc23)CC1)N/N=C/c1ccc(O)cc1 | > 100 µM | – | 80.6% | – | –
COc1cc(/C=N/NC(=O)CCN2CCN(c3ccnc4cc(Cl)ccc34)CC2)cc(OC)c1OC | 12.4 µM | – | 47.4% | – | –
COc1ccc(OC)c(/C=N/NC(=O)CCN2CCN(c3ccnc4cc(Cl)ccc34)CC2)c1 | 8.2 µM | – | 37.4% | – | –
O[C@@H](c1cc(C(F)(F)F)nc2c(C(F)(F)F)cccc12)[C@H]1CCCCN1 (relative stereo) [(S,R)-MEFLOQUINE] | – | 9.5 µM | – | 0.04 µM | –
O=C(CCN1CCN(c2ccnc3cc(Cl)ccc23)CC1)N/N=C/c1ccccc1Cl | 12.3 µM | 10.8 µM | 97.9% | 0.78 µM | inhibition (INH) [2]: 87.3%; Activity [3]: Non-toxic
CCN(CC)CCCC(C)Nc1ccnc2cc(Cl)ccc12 (configuration not stated) [CHLOROQUINE] | – | – | – | – | inhibition (INH) [2]: 87.1%
CN(C)c1ccc(/C=N/NC(=O)CCN2CCN(c3ccnc4cc(Cl)ccc34)CC2)cc1 | 15.2 µM | > 100 µM | 98% | 1.3 µM | inhibition (INH) [2]: 94.2%; Activity [3]: Non-toxic
O=C(CCN1CCN(c2ccnc3cc(Cl)ccc23)CC1)N/N=C/c1ccccc1 | 6.6 µM | 0.3 µM | 93.3% | 0.2 µM | –
CCOc1ccc(/C=N/NC(=O)CCN2CCN(c3ccnc4cc(Cl)ccc34)CC2)cc1 | 12 µM | – | 14.9% | – | –
NNC(=O)CCN1CCN(c2ccnc3cc(Cl)ccc23)CC1 | – | > 100 µM | 74.1% | 41.7 µM | inhibition (INH) [2]: 21.7%
CCOc1ccccc1/C=N/NC(=O)CCN1CCN(c2ccnc3cc(Cl)ccc23)CC1 | > 100 µM | – | 28.1% | – | –
COc1ccc(/C=N/NC(=O)CCN2CCN(c3ccnc4cc(Cl)ccc34)CC2)cc1 | 19.7 µM | – | 43% | – | –
O=C(CCN1CCN(c2ccnc3cc(Cl)ccc23)CC1)N/N=C/c1ccccc1C(F)(F)F | 8.1 µM | – | 59.6% | – | –
CCc1ccc(/C=N/NC(=O)CCN2CCN(c3ccnc4cc(Cl)ccc34)CC2)cc1 | 11.1 µM | – | 97.8% | – | –
O=C(CCN1CCN(c2ccnc3cc(Cl)ccc23)CC1)N/N=C/c1ccc([N+](=O)[O-])cc1 | 0.95 µM | 12.1 µM | 38.4% | – | –
COc1cc(/C=N/NC(=O)CCN2CCN(c3ccnc4cc(Cl)ccc34)CC2)cc(Br)c1O | 20.5 µM | – | 41.5% | – | IC50 (Plasmodium falciparum [6]): Not Active
O=C(CCN1CCN(c2ccnc3cc(Cl)ccc23)CC1)N/N=C/c1ccccn1 | > 100 µM | – | 0% | – | –
